# In ChEMBL document CHEMBL1201862, “PubChem BioAssay data set” (2004):
#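 A five-concentration, 48-hour dose response in 96-well plates underlies each endpoint, interpolated linearly between surrounding concentrations. GI50 = concentration required for 50% inhibition of growth.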 Calls of active or inactive are those of the source. No stated cut-off is given here; in the data, active = GI50 up to about 1.1 µM and inactive = higher.
# Experiments:
# Assay in all cases: DTP human tumour cell line panel, 48 h
# 786-0 = test system: 786-0
# SK-MEL-5 = test system: SK-MEL-5
# SW-620 = test system: SW-620
# UACC-62 = test system: UACC-62
# SK-MEL-28 = test system: SK-MEL-28
# HCC 2998 = test system: HCC 2998
# OVCAR-8 = test system: OVCAR-8
# BT-549 = test system: BT-549
# OVCAR-4 = test system: OVCAR-4
# CCRF-CEM = test system: CCRF-CEM
# HCT-116 = test system: HCT-116
# SF-268 = test system: SF-268
# MDA-MB-435 = test system: MDA-MB-435
# NCI/ADR-RES = test system: NCI/ADR-RES
# DU-145 = test system: DU-145
# MDA-N = test system: MDA-N
# TK-10 = test system: TK-10
# NCI-H522 = test system: NCI-H522
# RXF 393 = test system: RXF 393
# RPMI-8226 = test system: RPMI-8226
# MDA-MB-231 = test system: MDA-MB-231
# CAKI-1 = test system: CAKI-1
# IGROV-1 = test system: IGROV-1
# A498 = test system: A498
# HT-29 = test system: HT-29
# SNB-75 = test system: SNB-75
# NCI-H226 = test system: NCI-H226
# MOLT-4 = test system: MOLT-4
# SF-295 = test system: SF-295
# COLO 205 = test system: COLO 205
# HL-60 = test system: HL-60
# U-251 = test system: U-251
# SF-539 = test system: SF-539
# LOX IMVI = test system: LOX IMVI
# Malme-3M = test system: Malme-3M
# T47D = test system: T47D
# EKVX = test system: EKVX
# UACC-257 = test system: UACC-257
# A549 = test system: A549
# PC-3 = test system: PC-3
# SN12C = test system: SN12C
# M14 = test system: M14
# MCF7 = test system: MCF7
# K562 = test system: K562
# OVCAR-3 = test system: OVCAR-3
# UO-31 = test system: UO-31
# NCI-H460 = test system: NCI-H460
# NCI-H23 = test system: NCI-H23
# SR = test system: SR
# KM12 = test system: KM12
# SK-MEL-2 = test system: SK-MEL-2
# HOP-62 = test system: HOP-62
# Hs-578T = test system: Hs-578T
# SNB-19 = test system: SNB-19
# ACHN = test system: ACHN
# HOP-92 = test system: HOP-92
# OVCAR-5 = test system: OVCAR-5
# HCT-15 = test system: HCT-15
compound,measurement,setting,value
O=c1ccc2c(Cl)cccc2o1,GI50,786-0,> 10 µM (inactive)
same,GI50,SK-MEL-5,> 100 µM (inactive)
same,GI50,SW-620,> 100 µM (inactive)
same,GI50,UACC-62,> 100 µM (inactive)
same,GI50,SK-MEL-28,> 100 µM (inactive)
same,GI50,HCC 2998,3.74 µM (inactive)
same,GI50,OVCAR-8,> 100 µM (inactive)
same,GI50,BT-549,> 100 µM (inactive)
same,GI50,OVCAR-4,> 100 µM (inactive)
same,GI50,CCRF-CEM,> 100 µM (inactive)
same,GI50,HCT-116,> 100 µM (inactive)
same,GI50,SF-268,> 100 µM (inactive)
same,GI50,MDA-MB-435,> 100 µM (inactive)
same,GI50,NCI/ADR-RES,> 100 µM (inactive)
same,GI50,DU-145,> 100 µM (inactive)
same,GI50,MDA-N,> 100 µM (inactive)
same,GI50,TK-10,> 100 µM (inactive)
same,GI50,NCI-H522,> 100 µM (inactive)
same,GI50,RXF 393,> 100 µM (inactive)
same,GI50,RPMI-8226,> 100 µM (inactive)
same,GI50,MDA-MB-231,> 100 µM (inactive)
same,GI50,CAKI-1,> 100 µM (inactive)
same,GI50,IGROV-1,> 100 µM (inactive)
same,GI50,A498,> 100 µM (inactive)
same,GI50,HT-29,> 10 µM (inactive)
same,GI50,SNB-75,> 100 µM (inactive)
same,GI50,NCI-H226,> 100 µM (inactive)
same,GI50,MOLT-4,> 100 µM (inactive)
same,GI50,SF-295,> 100 µM (inactive)
same,GI50,COLO 205,> 100 µM (inactive)
same,GI50,HL-60,> 100 µM (inactive)
same,GI50,U-251,> 100 µM (inactive)
same,GI50,SF-539,> 100 µM (inactive)
same,GI50,LOX IMVI,> 100 µM (inactive)
same,GI50,Malme-3M,> 100 µM (inactive)
same,GI50,T47D,46.7 µM (inactive)
same,GI50,EKVX,58.3 µM (inactive)
same,GI50,UACC-257,> 100 µM (inactive)
same,GI50,A549,> 100 µM (inactive)
same,GI50,PC-3,> 100 µM (inactive)
same,GI50,SN12C,> 100 µM (inactive)
same,GI50,M14,> 100 µM (inactive)
same,GI50,MCF7,> 100 µM (inactive)
same,GI50,K562,> 100 µM (inactive)
same,GI50,OVCAR-3,> 100 µM (inactive)
same,GI50,UO-31,> 100 µM (inactive)
same,GI50,NCI-H460,> 100 µM (inactive)
same,GI50,NCI-H23,> 100 µM (inactive)
same,GI50,SR,> 100 µM (inactive)
same,GI50,KM12,> 100 µM (inactive)
same,GI50,SK-MEL-2,> 100 µM (inactive)
same,GI50,HOP-62,> 100 µM (inactive)
same,GI50,Hs-578T,75.5 µM (inactive)
same,GI50,SNB-19,> 100 µM (inactive)
same,GI50,ACHN,> 100 µM (inactive)
same,GI50,HOP-92,> 100 µM (inactive)
same,GI50,OVCAR-5,> 100 µM (inactive)
COC1(O)C(=O)c2ccccc2OC1(OC)c1ccccc1 (stereo not drawn),GI50,786-0,> 100 µM (inactive)
same,GI50,SK-MEL-5,> 100 µM (inactive)
same,GI50,SW-620,> 100 µM (inactive)
same,GI50,UACC-62,> 100 µM (inactive)
same,GI50,SK-MEL-28,> 100 µM (inactive)
same,GI50,HCC 2998,> 100 µM (inactive)
same,GI50,OVCAR-8,> 100 µM (inactive)
same,GI50,BT-549,> 100 µM (inactive)
same,GI50,OVCAR-4,> 100 µM (inactive)
same,GI50,CCRF-CEM,46.8 µM (inactive)
same,GI50,HCT-116,> 100 µM (inactive)
same,GI50,SF-268,> 100 µM (inactive)
same,GI50,MDA-MB-435,> 100 µM (inactive)
same,GI50,NCI/ADR-RES,77.8 µM (inactive)
same,GI50,DU-145,> 100 µM (inactive)
same,GI50,MDA-N,> 100 µM (inactive)
same,GI50,TK-10,> 100 µM (inactive)
same,GI50,NCI-H522,> 100 µM (inactive)
same,GI50,RXF 393,> 100 µM (inactive)
same,GI50,RPMI-8226,> 100 µM (inactive)
same,GI50,MDA-MB-231,> 100 µM (inactive)
same,GI50,CAKI-1,> 100 µM (inactive)
same,GI50,IGROV-1,> 100 µM (inactive)
same,GI50,A498,> 100 µM (inactive)
same,GI50,HT-29,> 100 µM (inactive)
same,GI50,SNB-75,> 100 µM (inactive)
same,GI50,NCI-H226,> 100 µM (inactive)
same,GI50,MOLT-4,75.2 µM (inactive)
same,GI50,SF-295,> 100 µM (inactive)
same,GI50,COLO 205,> 100 µM (inactive)
same,GI50,HL-60,50.4 µM (inactive)
same,GI50,U-251,> 100 µM (inactive)
same,GI50,SF-539,> 100 µM (inactive)
same,GI50,LOX IMVI,65.9 µM (inactive)
same,GI50,Malme-3M,> 100 µM (inactive)
same,GI50,T47D,> 100 µM (inactive)
same,GI50,EKVX,> 100 µM (inactive)
same,GI50,UACC-257,> 100 µM (inactive)
same,GI50,A549,> 100 µM (inactive)
same,GI50,PC-3,> 100 µM (inactive)
same,GI50,SN12C,> 100 µM (inactive)
same,GI50,M14,> 100 µM (inactive)
same,GI50,MCF7,48.9 µM (inactive)
same,GI50,K562,42 µM (inactive)
same,GI50,OVCAR-3,> 100 µM (inactive)
same,GI50,NCI-H460,40.4 µM (inactive)
same,GI50,NCI-H23,> 100 µM (inactive)
same,GI50,HCT-15,31.8 µM
same,GI50,SR,50.4 µM (inactive)
same,GI50,SK-MEL-2,> 100 µM (inactive)
same,GI50,HOP-62,> 100 µM (inactive)
same,GI50,Hs-578T,> 100 µM (inactive)
same,GI50,SNB-19,> 100 µM (inactive)
same,GI50,ACHN,> 100 µM (inactive)
same,GI50,HOP-92,> 100 µM (inactive)
same,GI50,OVCAR-5,> 100 µM (inactive)
